What was measured:
average bleeding time = assay: Hemostatic action: average bleeding time, method of ROSKAM modified by LAPORTE, rabbit's ear; assay type: in vivo; settings: for DE50: effect and route not given; for Percentage decrease of average bleeding time: one hour after administering
Experimental: (§1) The activity for the hemostatic action is determined in vivo, by ROSKAM's method, as modified by LAPORTE, on the rabbit's ear, and the protective action on the capillaries by the method of BEACH and STEINETZ. The therapeutical index (ratio between LD50 and TE50) is very favorable, in view of the high activity and low toxicity.

[1] = DL50 of some compounds according to the invention (species not stated); design: DL50: unit not given beside the values; settings: in vivo
Source text: The following table gives the values for DL50 and DE50, as well as proposed doses of some compounds according to the present invention.

capillary permeability = assay: Protective action on capillaries: capillary permeability, modified method of BEACH-STEINITZ; assay type: in vivo; settings: mouse
Experimental: as §1
The action of bis diethylamine p-dihydroxy benzene disulfonate on the capillary permeability for the mouse was determined by the modified method of BEACH-STEINITZ (J. Pharmacol. Exp. Ther. 131 (1), 400, 1961). The product, administered i.p., causes a decrease of the capillary permeability which appears after 8 micromoles/kg, and higher doses, and the maximum effect is attained at a dose of 200 micromoles/kg.

[2] = Acute toxicity in the mouse (LD50, method of Reed and Muench); settings: in vivo
Experimental: (§2) 1. Acute toxicity in the mouse and the rat
(§3) The LD50 was determined according to the method of Reed and Muench.

[3] = Acute toxicity in the rat (LD50, method of Reed and Muench); settings: in vivo
Experimental: as §2
100 to 150 g Sprague-Dawley rats
as §3

[4] = test system: plasma cholesterol, triglyceride, and total lipids levels; assay: Hypolipedemic action in rats treated with Triton WR-1339; assay type: in vivo, Sprague-Dawley rats

O=S(=O)(O)c1cc(O)c(S(=O)(=O)O)cc1O [bis (ammonium) p-dihydroxy-benzene disulfonate] [bis (ammonium)-p-dihydroxy benzene disulfonate]
DE50 (average bleeding time): 2,45 μmoles/kg

O=S(=O)(O)c1cc(O)c(S(=O)(=O)O)cc1O [calcium p-dihydroxybenzene-disulfonate, calcium p-dihydroxy benzene disulfonate]
DL50 ([1]; po): > 6880
DE50 (average bleeding time): 0,98 μmoles/kg

O=S(=O)(O)c1cc(O)c(S(=O)(=O)O)cc1O [lithium p-dihydroxybenzene-disulfonate, lithium p-dihydroxy benzene disulfonate]
DL50 ([1]; iv): 2186
DE50 (average bleeding time): 0,90 μmoles/kg

O=S(=O)(O)c1cc(O)c(S(=O)(=O)O)cc1O [bis (ammonium)-p-dihydroxy benzene disulfonate]
LD50 ([1]; route not given): 1210 mg/kg

O=S(=O)(O)c1cc(O)c(S(=O)(=O)O)cc1O [bis-diethylamine p-dihydroxy benzene disulfonate] [listing 1 of 2 here]
ED (maximum effect) (capillary permeability; ip, read-out: dose at which maximum effect on capillary permeability is attained): 200 µmol/kg
minimal effective dose (capillary permeability; ip, read-out: dose from which decrease of the capillary permeability appears): ≥ 8 µmol/kg
LD50 ([2]; iv, I.V., mouse female): 1020 mg/kg
LD50 ([2]; iv, I.V., mouse male): 1020 mg/kg
LD50 ([2]; po, mouse female): 5880 mg/kg
LD50 ([2]; po, mouse male): 6290 mg/kg
LD50 ([3]; ip, I.P., rat female): 2440 mg/kg
LD50 ([3]; ip, I.P., rat male): 2650 mg/kg
LD50 ([3]; po, rat female): 4680 mg/kg
LD50 ([3]; po, rat male): 5840 mg/kg

O=S(=O)(O)c1cc(O)c(S(=O)(=O)O)cc1O [bis-diethylamine p-dihydroxy benzene disulfonate] [listing 2 of 2 here]
dose dependence of decrease of capillary permeability (in words) (capillary permeability; i.p., intermediate doses (8 to 200 micromoles/kg)): effects proportional to the logarithm of the dose
FREE CHOLESTEROL (plasma) ([4]; Triton + compound, Triton alone 60.5 ± 2.5): 54.4 ± 3.9 mg %
TOTAL CHOLESTEROL (plasma) ([4]; Triton + compound, Triton alone 238.4 ± 6.5): 223.0 ± 15.1 mg %
TRIGLYCERIDES (plasma) ([4]; Triton + compound, Triton alone 773.5 ± 59.1): 589.5 ± 57.9 mg %
TOTAL LIPIDS (plasma) ([4]; Triton + compound, Triton alone 2466.9 ± 141.2): 2001.9 ± 193.7 mg %
effect on increase of plasma cholesterol, triglyceride, and total lipids levels (in words) ([4]; Triton WR-1339 treated rats): significantly inhibits the increase
Percentage decrease of average bleeding time (average bleeding time; 0.625 micromoles/kg): 8.5%
Percentage decrease of average bleeding time (average bleeding time; 1.25 micromoles/kg): 19.5%
Percentage decrease of average bleeding time (average bleeding time; 2.5 micromoles/kg): 32.0%
duration of effect on bleeding time (in words) (average bleeding time; 5 micromoles/kg): long lasting
% decrease of average bleeding time (average bleeding time; 5 micromoles/kg, 1 hour after i.v. administration): 43.0%
% decrease of average bleeding time (average bleeding time; 5 micromoles/kg, 2 hours after i.v. administration): 46.8%
% decrease of average bleeding time (average bleeding time; 5 micromoles/kg, 4 hours after i.v. administration): 42.0%
% decrease of average bleeding time (average bleeding time; 5 micromoles/kg, 8 hours after i.v. administration): 33.5%
% decrease of average bleeding time (average bleeding time; 5 micromoles/kg, 16 hours after i.v. administration): 32.0%
% decrease of average bleeding time (average bleeding time; 5 micromoles/kg, 24 hours after i.v. administration): 21.0%
Percentage decrease of average bleeding time (average bleeding time; 5.0 micromoles/kg): 43.0%
Percentage decrease of average bleeding time (average bleeding time; 7.05 micromoles/kg): 51.0%
Percentage decrease of average bleeding time (average bleeding time; 10.0 micromoles/kg): 50.0%
DE50 (average bleeding time): 2,25 μmoles/kg
effect on bleeding time (in words) (average bleeding time; rabbit): produces a decrease of the bleeding time

O=S(=O)(O)c1cc(O)c(S(=O)(=O)O)cc1O [bis (piperazine) p-dihydroxy-benzene disulfonate] [bis (piperazine) p-dihydroxy benzene disulfonate]
DL50 ([1]; po): > 2000
DE50 (average bleeding time): 1,25 μmoles/kg
